The source of these data is patent publication US9107942B2, “Methods of diagnosing and treating fibrosis” (University of Rochester, priority 2008, dated 2015).

Test [1] deals with YY1 expression. Briefly: YY1 immunoblot in TGF-β-stimulated WI-38 cells pre-treated with NF-κB inhibitor. It counts as cell-based, human. The following applies: WI-38 cells pre-treated with 5 μM for one hour, then 10 ng/ml TGF-β in serum-free DMEM. As to the method:
FIG. 12A is a graph of the relative fold induction of YY1 mRNA expression in WI-38 cells transfected with a wild-type YY1 promoter construct (“YY1”). FIG. 12B is a graph of the relative fold induction of YY1 mRNA expression in WI-38 cells transfected with a mutant YY1 promoter contruct that has a disrupted NF-κB binding site (“mutant YY1”). In both cases, the cells were also transiently co-transfected with a vector control (“pSG5”) or 2.5 μg of NF-κB (“p65”) plasmid by electroporation, and then treated with PBS or 10 ng/ml of TGF-β for 24 hours. Data are presented with standard errors derived from at least three independent experiments performed in triplicate. ***P<0.001 (untreated pSG5 vs. untreated p65; TGF-β-treated pSG5 vs. TGF-β-treated p65). FIG. 12C is an immunoblot of WI-38 cells pre-treated with 5 μM of Bay 11-7085 (an NF-κB inhibitor) for one hour and then treated with 10 ng/ml of TGF-β for the indicated times in serum-free DMEM. Extracts from whole cells were immunoblotted with anti-YY1 or anti-β-actin antibody.
(§1) Cells or lung tissues were solubilized in lysis buffer (50 mM Tris/HCl (pH 8.0), 150 mM NaCl, 0.1% SDS, 0.5% sodium deoxycholate, 0.02% Na3N, 1% Nonidet P40, 1 mM PMSF, and 2 μg/ml aprotinin). Protein concentrations were determined by a BCA assay. Protein samples (20 μg) were separated in 8-16% SDS/PAGE gels and transferred onto a nitrocellulose membrane. […]

Test [2] concerns human tumor cells. The following applies: cited from earlier work.
The subject of test [3] is lung fibroblasts. Conditions: cited from earlier work.
For test [4], the system named is YY1 expression. Briefly: YY1 expression in stimulated WI-38 lung fibroblasts (immunoblot, quantitative PCR). Conditions: WI-38 cells; for YY1 transcript levels: quantitative PCR. It counts as cell-based, human. As to the method: (§2) FIGS. 7A and 7B are immunoblots of human WI-38 cells (FIG. 7A) and mouse MLg2908 cells (FIG. 7B) treated with TGF-β. After serum starvation for 24 hours, cells were treated with 10 ng/ml of TGF-β for the indicated times in serum-free DMEM. Extracts from whole cells were subjected to immunoblot analysis with anti-YY1 or anti-β-actin antibody. FIGS. 7C and 7D are graphs showing the relative fold induction of YY-1 mRNA expression, detected by quantitative PCR, in WI-38 cells (FIG. 7C) and MLg2908 cells (FIG. 7D) treated with TGF-β. FIGS. 7E and 7F are graphs relating to the YY1 promoter activity in YY1-Luc-transfected WI-38 cells (FIG. 7E) and YY1-Luc-transfected MLg2908 cells (FIG. 7F) treated with PBS or TGF-β for 24 hours. The full-length YY1 promoter-luciferase reporter (YY1-LUC) was transfected into the cells by electroporation. Relative light units (RLU) were measured with a luminometer. Fold changes result from the RLU of stimulated cells divided by the RLU of non-stimulated cells. The data are presented with standard errors derived from at least three independent experiments performed in triplicate. *p<0.05 and **p<0.01 by the Student's t-test.
(§3) FIGS. 9A and 9B are immunoblots of human WI-38 cells (FIG. 9A) and mouse MLg2908 cells (FIG. 9B) treated with TNF-α. After serum starvation for 24 hours, cells were treated with 10 ng/ml of TNF-α for the indicated times in serum-free DMEM. Extracts from whole cells were subjected to immunoblot analysis with anti-YY1 or anti-β-actin antibody. FIGS. 9C and 9D are graphs showing the relative fold induction of YY-1 mRNA expression, detected by quantitative PCR, in WI-38 cells (FIG. 9C) and MLg2908 cells (FIG. 9D) treated with TGF-β. FIGS. 9E and 9F are graphs relating to the YY1 promoter activity in YY1-Luc-transfected WI-38 cells (FIG. 9E) and YY1-Luc-transfected MLg2908 cells (FIG. 9F) treated with TNF-α for 8 hours. The full-length YY1 promoter-luciferase reporter (YY1-LUC) was transfected into the cells by electroporation. Relative light units (RLU) were measured with a luminometer. Fold changes result from the RLU of stimulated cells divided by the RLU of non-stimulated cells. The data are presented with standard errors derived from at least three independent experiments performed in triplicate. *p<0.05, **p<0.01, and ***p<0.001 by the Student's t-test.
After serum starvation for 24 hours, cells were treated with 40 μg/ml of silica for the indicated time periods in serum-free DMEM. Extracts from WI-38 (FIG. 10A) or MLg2908 (FIG. 10B) cells were immunoblotted with anti-YY1 or anti-β-actin antibodies.
FIG. 18 is an immunoblot showing YYI in WI-38 cells that were unstimulated (“Resting”) or treated with IL-1β ([…]). Immunoblots were performed on Day 1 and Day 2 using anti-YY1 and anti-GAPDH antibodies.
Total RNA from lung tissue and lung fibroblasts was extracted using TRIzol® reagent (Invitrogen). Then, 0.5-1 μg of total RNA was reverse-transcribed using oligo dT as a primer. Quantitative PCR was performed using an iQ5 Biorad device. Data were analyzed by the 2^−Δ(Δ/CT^) method and normalized to the expression of the GAPDH housekeeping gene.
as §1

In test [5] the test system is B cells. The following applies: cited from earlier work.
Test [6] relates to YY1 expression. Briefly: YY1 expression in stimulated MLg2908 lung fibroblasts (immunoblot, quantitative PCR). The following applies: MLg2908 cells; for YY1 transcript levels: quantitative PCR; for YY1 expression: serum-free DMEM, 10 ng/ml cytokine or 40 μg/ml silica, immunoblot. It counts as cell-based, mouse. The procedure:
as §2
as §3, with “The data are presented with standard errors derived from at least three independent experiments performed in triplicate. *p<0.05, **p<0.01, and ***p<0.001 by the Student's t-test.” left out
Total RNA from lung tissue and lung fibroblasts was extracted using TRIzol® reagent (Invitrogen). […] Quantitative PCR was performed using an iQ5 Biorad device. Data were analyzed by the 2^−Δ(Δ/CT^) method and normalized to the expression of the GAPDH housekeeping gene.
Cells or lung tissues were solubilized in lysis buffer (50 mM Tris/HCl (pH 8.0), 150 mM NaCl, 0.1% SDS, 0.5% sodium deoxycholate, 0.02% Na3N, 1% Nonidet P40, 1 mM PMSF, and 2 μg/ml aprotinin). Protein concentrations were determined by a BCA assay. […]
(In general: In western blotting, separated proteins are transferred to a membrane and probed.)

In test [7] the test system is YY1 promoter. Briefly: YY1 promoter-luciferase reporter (YY1-LUC) in WI-38 cells. It counts as cell-based, human. Conditions: YY1-Luc-transfected WI-38 cells. The procedure:
as §2, with “The data are presented with standard errors derived from at least three independent experiments performed in triplicate. *p<0.05 and **p<0.01 by the Student's t-test.” left out
(§4) FIGS. 9A and 9B are immunoblots of human WI-38 cells (FIG. 9A) and mouse MLg2908 cells (FIG. 9B) treated with TNF-α. […] FIGS. 9C and 9D are graphs showing the relative fold induction of YY-1 mRNA expression, detected by quantitative PCR, in WI-38 cells (FIG. 9C) and MLg2908 cells (FIG. 9D) treated with TGF-β. […] Relative light units (RLU) were measured with a luminometer. […]

Test [8] relates to YY1 promoter. As to the kind of experiment: YY1 promoter-luciferase reporter (YY1-LUC) in MLg2908 cells. It counts as cell-based, mouse. Conditions: YY1-Luc-transfected MLg2908 cells. The procedure: as §2, with “The data are presented with standard errors derived from at least three independent experiments performed in triplicate. *p<0.05 and **p<0.01 by the Student's t-test.” left out
as §4
A general note: A reporter such as luciferase makes a cellular process visible.

The test system of test [9] is YY1 expression. Briefly: YY1 immunoblot in MRC5 human adult fibroblasts. It counts as cell-based. Conditions: MRC5 cells, 10 ng/ml for 8 hours. As to the method: (§5) FIG. 8A is an immunoblot of whole cell extracts from MRC5 cells treated with TGF-β for 8 hours. FIG. 8B is a graph of the relative light units of YY1-Lluc-transfected MRC5 cells treated with phosphate-buffered saline (“0”) or TGF-β (“10”) for 24 hours. The data are presented with standard errors derived from at least three independent experiments performed in triplicate. *p<0.05 by the Student's t-test.
(§6) After serum starvation for 24 hours, MRC5 cells were treated with 10 ng/ml of TGF-β for 8 hours or 24 hours in serum-free DMEM. Extracts from whole cells treated with TGF-β for 8 hours were subjected to immunoblot analysis with anti-YY1 or anti-β-actin antibody. […] MRC5 cells transfected with the full-length YY1 promoter-luciferase reporter (YY1-LUC) by electroporation were treated with PBS or TGFβ for 24 hours, and the relative light units (RLU) were measured with a luminometer.

Test [10] concerns YY1 promoter. As to the kind of experiment: YY1 promoter-luciferase reporter (YY1-LUC) in MRC5 cells. It counts as cell-based, human. Conditions: YY1-LUC-transfected MRC5 cells, 24 hours. The procedure: as §5, §6
The subject of test [11] is YY1 expression. As to the kind of experiment: YY1 western blot in IC-21 alveolar macrophages. In kind it is cell-based. The following applies: TNF-α 10 ng/ml or silica 20 μg/ml, two days. As to the method: FIG. 11 is a western blot of unstimulated (“resting”) IC-21 alveolar macrophages or IC-21 cells stimulated with TNF-α (10 ng/ml) or silica (20 μg/ml). After two days, the cells were harvested and YY1 expression was determined using anti-YY1 and anti-GAPDH antibodies.
In addition to the indirect effects of lung inflammation, crystalline silica can activate cells directly through distinct molecular pathways (Hornung et al., “Silica Crystals and Aluminum Salts Activate the NALP3 Inflammasome Through Phagosomal Destabilization,” Nat. Immunol. 9(8):847-56 (2008); Dostert et al., “Innate Immune Activation Through Nalp3 Inflammasome Sensing of Asbestos and Silica,” Science 320(5876):674-77 (2008), each of which is hereby incorporated by reference in its entirety). Therefore, whether silica particles directly regulate YY1 expression in fibroblasts was tested by incubating cells for up to 8 hours in vitro with a fixed concentration of silica.

[12] abbreviates: serum-free DMEM, 10 ng/ml cytokine or 40 μg/ml silica, immunoblot.

Entries after “also recorded” stand apart in the source; their conditions may differ.

As for `CC(C)(C)c1ccc(S(=O)(=O)/C=C/C#N)cc1` [Bay11-7085], in [1], the YY1 expression entry was “abolished”.

As to `[N]=O` [Nitric oxide], the YY1 expression result in test [2] and in [3] was “inhibit” throughout.

For “IL-1β: cytokine used to treat WI-38 cells”, the YY1 expression entry in [4] (Day 1 and Day 2, immunoblot) was “upregulated”.

Turning to “Rituximab: anti-CD20 antibody used for treating B cell non-Hodgkin's lymphoma”, in test [5], the NF-κB expression result is “diminished” and the YY1 expression entry is reported as “diminished”.

Consider “TGF-β: profibrotic cytokine used to stimulate lung fibroblasts”, for which the YY1 transcript levels entry in [4] and in [6] was “upregulated” throughout. For the same compound, the values for the YY1 expression result in test [4] (setting [12]), in test [6] and in test [9] were “upregulated”, “upregulated” and “up-regulated”, respectively. Further, the YY1 promoter activity entry in [7] and in test [8] was “significantly increased” in each case. Besides, the YY1-LUC activity result in test [10] is on record as “up-regulated”.

For the compound TNF-α, the YY1 transcript levels result in test [4] and in test [6] was “upregulated” each time. Besides, the YY1 expression result in test [4] (setting [12]) is given as “increased”; in test [6] it was “increased”; in test [11], “neither silica nor TNF-α affected; also recorded: slightly decreased”. Moreover, the YY1 promoter activity entry in test [7] and in [8] was “upregulated” throughout.
